Literature values in patent publication US11599023B2, “Photosensitive resin composition, organic EL element barrier rib, and organic EL element” (SHOWA DENKO K.K., priority 2018, dated 2023).
Where two headings read alike, the source gives them in different places.

Assays:
[1] = not given; remark: listed apart in the source
[2] = Table 1, at 20° C. and 1 atm, cited in Scifinder
[3] = Table 2, of the low molecular weight organic compound (B), cited in Scifinder
[4] = at 20° C. and 1 atm, SciFinder database
[5] = Table 1, at 25° C., cited in Scifinder

SMILES | Molar volume [2] [cm^3/mol] | Molar volume [3] [cm^3/mol] | Molar volume [4] [cm^3/mol] | pKa [1, 5] | pKa [1, 3] | pKa ([1]; at 25° C., SciFinder database)
O=C(O)c1ccc(O)c(O)c1O [2,3,4-Trihydroxybenzoic acid] | 97.2 | 97.2 | 97.2 | 3.30 | 3.30 | 3.3
O=C(O)c1cc(O)c(O)c(O)c1 [Gallic acid] | 97.2 | 97.2 | 97.2 | – | – | –
O=C(O)c1cccc(C(=O)O)c1C(=O)O [Hemimellitic acid] | 127.0 | 127.0 | 127 | – | – | –
CCCOC(=O)c1cc(O)c(O)c(O)c1 [Propyl gallate, reference compound] | 155.6 | 155.6 | – | – | – | –
O=C(O)c1cc(C(=O)O)c(C(=O)O)cc1C(=O)O [Pyromellitic acid, reference compound] | 139.5 | 139.5 | – | – | – | –
Oc1ccccc1O [catechol] | – | – | 86.2 | – | – | –
O=C(O)c1cccc(C(=O)O)c1 [isophthalic acid] | – | – | 114.4 | – | – | –
O=C(O)c1ccccc1C(=O)O [phthalic acid] | – | – | 114.4 | – | – | –
O=C(O)c1ccc(C(=O)O)c(C(=O)O)c1 [trimellitic acid] | – | – | 127.0 | – | – | –
O=C(O)c1cc(C(=O)O)cc(C(=O)O)c1 [trimesic acid] | – | – | 127.0 | – | – | –

More lines, now with the values ahead:

Molar volume [2] [cm^3/mol] | Molar volume [3] [cm^3/mol] | Molar volume [4] [cm^3/mol] | pKa [1, 5] | pKa [1, 3] | pKa ([1]; at 25° C., SciFinder database) | SMILES
84.7 | 84.7 | 84.7 | 9.58 | 9.58 | 9.58 | Oc1ccc(O)c(O)c1 [1,2,4-Benzenetriol]
161.2 | 161.2 | – | 7.38 | 7.38 | – | O=C(c1ccc(O)cc1)c1ccc(O)c(O)c1O [2,3,4,4′-Tetrahydroxybenzophenone, 2,3,4,4′-Tetrahydroxybenzophenone, reference compound]
98.8 | 98.8 | 98.8 | 2.96 | 2.96 | 2.96 | O=C(O)c1cccc(O)c1O [2,3-Dihydroxybenzoic acid]
98.8 | 98.8 | 98.8 | 3.32 | 3.32 | 3.32 | O=C(O)c1ccc(O)cc1O [2,4-Dihydroxybenzoic acid]
98.8 | 98.8 | 98.8 | – | – | – | O=C(O)c1cc(O)ccc1O [2,5-Dihydroxybenzoic acid]
98.8 | 98.8 | 98.8 | 3.96 | 3.96 | 3.96 | O=C(O)c1cc(O)cc(O)c1 [3,5-Dihydroxybenzoic acid]
151.3 | 151.3 | – | 8.11 | 8.11 | – | Oc1ccc(O)c2c(O)c3ccccc3c(O)c12 [Leucoquinizarin, reference compound]
229.7 | 229.7 | – | 9.23 | 9.23 | – | O=C1OC(c2ccc(O)cc2)(c2ccc(O)cc2)c2ccccc21 [Phenolphthalein, reference compound]
242.0 | 242.0 | – | 3.96 | 3.96 | – | O=C(O)c1ccccc1C(c1ccc(O)cc1)c1ccc(O)cc1 [Phenolphthalin, reference compound]
84.7 | 84.7 | 84.7 | 9.06 | 9.06 | 9.06 | Oc1cc(O)cc(O)c1 [Phloroglucinol]
84.7 | 84.7 | 84.7 | – | – | – | Oc1cccc(O)c1O [Pyrogallol]
– | – | 86.2 | – | – | 9.58 | Oc1ccc(O)cc1 [hydroquinone]
– | – | 86.2 | – | – | 9.45 | Oc1cccc(O)c1 [resorcinol]
– | – | 114.4 | – | – | – | O=C(O)c1ccc(C(=O)O)cc1 [terephthalic acid]
